According to patent US12263172B2, “Toll-like receptor agonists for use in the treatment of hepatitis b” (priority 2019, dated 2025):
“And” between values parts separate entries of the source, which are not always exact repeats. Identical values can stand only once.

Experiment: Phase 1 single-ascending dose (Part 1): safety and tolerability in healthy adults
Type: in vivo, human
Protocol: This ongoing trial is a Phase 1 randomized, double-blind, placebo-controlled study in male and female healthy adult volunteers aged 18-55 years. All volunteers provided written, informed consent.
All volunteers were followed up for 4 weeks and safety and tolerability were continuously assessed throughout the study. All adverse events (AEs) were recorded from the time of consent to the completion visit and were graded using the DAIDS toxicity grading scale. Volunteers also underwent physical examinations, electrocardiograms, vital sign checks and clinical laboratory parameters (chemistry, haematology, urinalysis).

CCCCOc1nc(N)c2[nH]cc(Cc3ccc(CN4CCCC4)cc3)c2n1 [Compound 4]
8 (100%) n (%): subjects with at least one AE (single dose 1.25 mg fasted)
6 (75.0%) n (%): subjects with at least one AE possibly, probably or very likely related to any study drug (single dose 1.25 mg fasted)
2 (25) n (%): Oropharyngeal pain Grade 1 (treatment-emergent AE) (single dose 1.25 mg fasted) | Pyrexia Grade 1 (treatment-emergent AE) (single dose 1.25 mg fasted) | URTI Grade 1 (treatment-emergent AE) (single dose 1.25 mg fasted)
1 (16.7%) n (%): lab toxicity: Creatine kinase (U/L), upwards, Grade 2 (single dose 0.6 mg fasted) | lab toxicity: Glucose (mmol/L), upwards, Grade 1 (single dose 0.6 mg fasted) | lab toxicity: Glucose (mmol/L), upwards, Grade 2 (single dose 0.6 mg fasted) | lab toxicity: LDL cholesterol (mmol/L, calculated), upwards, Grade 2 (single dose 0.6 mg fasted) | lab toxicity: Sodium (mmol/L), upwards, Grade 2 (single dose 0.6 mg fasted) | subjects with at least one AE possibly related to any study drug (single dose 0.6 mg fasted) | subjects with at least one AE possibly, probably or very likely related to any study drug (single dose 0.6 mg fasted) | treatment-related AE: Any AE (single dose 0.6 mg fasted) | treatment-related AE: Respiratory, thoracic and mediastinal disorders (single dose 0.6 mg fasted) | vital signs: Standing SBP (mmHg) Grade 1 (single dose 0.6 mg fasted) | vital signs: Supine DBP (mmHg) Low (single dose 0.6 mg fasted) | vital signs: Supine SBP (mmHg) Grade 1 (single dose 0.6 mg fasted) | vital signs: Supine pulse (bpm) Low (single dose 0.6 mg fasted)
1 (12.5%) n (%) and 1 (12.5%)^a n (%): ECG change from reference: QTcF (ms) [30; 60] (single dose 1.25 mg fasted)
1 (13) n (%): Back pain Grade 1 (treatment-emergent AE) (single dose 1.25 mg fasted) | Pyrexia Grade 2 (treatment-emergent AE) (single dose 1.25 mg fasted)
0 n (%): lab toxicity: Cholesterol (mmol/L), upwards, Grade 2 (single dose 0.6 mg fasted) | lab toxicity: Creatine kinase (U/L), upwards, Grade 1 (single dose 0.6 mg fasted) | lab toxicity: Creatine kinase (U/L), upwards, Grade 4 (single dose 0.6 mg fasted) | lab toxicity: LDL cholesterol (mmol/L, calculated), upwards, Grade 3 (single dose 0.6 mg fasted) | lab toxicity: Lymphocytes (giga/L), downwards, Grade 2 (single dose 0.6 mg fasted) | lab toxicity: Lymphocytes (giga/L), downwards, Grade 4 (single dose 0.6 mg fasted) | lab toxicity: Neutrophils, segmented (giga/L), downwards, Grade 1 (single dose 0.6 mg fasted) | lab toxicity: Neutrophils, segmented (giga/L), downwards, Grade 2 (single dose 0.6 mg fasted) | lab toxicity: Platelets (giga/L), downwards, Grade 1 (single dose 0.6 mg fasted) | lab toxicity: Triglycerides (mmol/L), upwards, Grade 2 (single dose 0.6 mg fasted) | lab toxicity: Triglycerides (mmol/L), upwards, Grade 3 (single dose 0.6 mg fasted) | lab toxicity: Urate (μmol/L), upwards, Grade 1 (single dose 0.6 mg fasted) | subjects with at least one AE for which any study drug or study was permanently stopped (single dose 0.6 mg fasted) | subjects with at least one AE for which any study drug or study was temporarily stopped (single dose 0.6 mg fasted) | subjects with at least one AE probably related to any study drug (single dose 0.6 mg fasted) | subjects with at least one AE very likely related to any study drug (single dose 0.6 mg fasted) | subjects with at least one SAE (single dose 0.6 mg fasted) | subjects with at least one fatal AE (single dose 0.6 mg fasted) | subjects with at least one grade 2 AE (single dose 0.6 mg fasted) | subjects with at least one grade 3 or 4 AE (single dose 0.6 mg fasted) | treatment-related AE: Chills (single dose 0.6 mg fasted) | treatment-related AE: Dizziness (single dose 0.6 mg fasted) | treatment-related AE: General disorders and administration site conditions (single dose 0.6 mg fasted) | treatment-related AE: Headache (single dose 0.6 mg fasted) | treatment-related AE: Hypertension (single dose 0.6 mg fasted) | treatment-related AE: Myalgia (single dose 0.6 mg fasted) | treatment-related AE: Nervous system disorders (single dose 0.6 mg fasted) | treatment-related AE: Oropharyngeal pain (single dose 0.6 mg fasted) | treatment-related AE: Pyrexia (single dose 0.6 mg fasted) | treatment-related AE: Vascular disorder (single dose 0.6 mg fasted) | vital signs: Respiratory rate (brpm) Grade 2 (single dose 0.6 mg fasted) | vital signs: SaO2 (%) 90% to <95% (single dose 0.6 mg fasted) | vital signs: Standing DBP (mmHg) Grade 1 (single dose 0.6 mg fasted) | vital signs: Standing DBP (mmHg) Grade 2 (single dose 0.6 mg fasted) | vital signs: Standing DBP (mmHg) Grade 3 (single dose 0.6 mg fasted) | vital signs: Standing DBP (mmHg) Low (single dose 0.6 mg fasted) | vital signs: Standing SBP (mmHg) Low (single dose 0.6 mg fasted) | vital signs: Standing pulse (bpm) High (single dose 0.6 mg fasted) | vital signs: Standing pulse (bpm) Low (single dose 0.6 mg fasted) | vital signs: Supine DBP (mmHg) Grade 1 (single dose 0.6 mg fasted) | vital signs: Supine SBP (mmHg) Grade 2 (single dose 0.6 mg fasted) | vital signs: Supine SBP (mmHg) Low (single dose 0.6 mg fasted) | ↑ AST Grade 3 (laboratory abnormality) (single dose 0.6 mg fasted) | ↑ Amylase Grade 2 (laboratory abnormality) (single dose 0.6 mg fasted) | ↑ Cholesterol Grade 2 (laboratory abnormality) (single dose 0.6 mg fasted) | ↑ Creatine kinase Grade 4 (laboratory abnormality) (single dose 0.6 mg fasted) | ↑ LDL cholesterol Grade 3 (laboratory abnormality) (single dose 0.6 mg fasted) | ↑ Lipase Grade 2 (laboratory abnormality) (single dose 0.6 mg fasted) | ↑ Pancreatic amylase Grade 2 (laboratory abnormality) (single dose 0.6 mg fasted) | ↑ Potassium Grade 2 (laboratory abnormality) (single dose 0.6 mg fasted) | ↑ Triglycerides Grade 2 (laboratory abnormality) (single dose 0.6 mg fasted) | ↑ Triglycerides Grade 3 (laboratory abnormality) (single dose 0.6 mg fasted) | ↓ Bicarbonate Grade 2 (laboratory abnormality) (single dose 0.6 mg fasted) | ↓ GFR Grade 2 (laboratory abnormality) (single dose 0.6 mg fasted) | ↓ Lymphocytes Grade 2 (laboratory abnormality) (single dose 0.6 mg fasted) | ↓ Lymphocytes Grade 4 (laboratory abnormality) (single dose 0.6 mg fasted) | ↓ Neutrophils Grade 2 (laboratory abnormality) (single dose 0.6 mg fasted) | ↓ Phosphate Grade 2 (laboratory abnormality) (single dose 0.6 mg fasted) | Chills Grade 1 (treatment-emergent AE) (single dose 1.25 mg fasted) | Contact dermatitis Grade 1 (treatment-emergent AE) (single dose 1.25 mg fasted) | Dizziness Grade 1 (treatment-emergent AE) (single dose 1.25 mg fasted) | ECG actual value: Heart rate (bpm) Low (single dose 1.25 mg fasted) | Headache Grade 2 (treatment-emergent AE) (single dose 1.25 mg fasted) | Hypertension Grade 1 (treatment-emergent AE) (single dose 1.25 mg fasted) | Hypertension Grade 2 (treatment-emergent AE) (single dose 1.25 mg fasted) | lab toxicity: Amylase (U/L), upwards, Grade 2 (single dose 1.25 mg fasted) | lab toxicity: Cholesterol (mmol/L), upwards, Grade 2 (single dose 1.25 mg fasted) | lab toxicity: Creatine kinase (U/L), upwards, Grade 1 (single dose 1.25 mg fasted) | lab toxicity: Creatine kinase (U/L), upwards, Grade 2 (single dose 1.25 mg fasted) | lab toxicity: Creatine kinase (U/L), upwards, Grade 4 (single dose 1.25 mg fasted) | lab toxicity: LDL cholesterol (mmol/L, calculated), upwards, Grade 1 (single dose 1.25 mg fasted) | lab toxicity: LDL cholesterol (mmol/L, calculated), upwards, Grade 2 (single dose 1.25 mg fasted) | lab toxicity: Lymphocytes (giga/L), downwards, Grade 4 (single dose 1.25 mg fasted) | lab toxicity: Neutrophils, segmented (giga/L), downwards, Grade 2 (single dose 1.25 mg fasted) | lab toxicity: Triglycerides (mmol/L), upwards, Grade 3 (single dose 1.25 mg fasted) | lab toxicity: Urate (μmol/L), upwards, Grade 1 (single dose 1.25 mg fasted) | subjects with at least one AE for which any study drug or study was temporarily stopped (single dose 1.25 mg fasted) | subjects with at least one AE very likely related to any study drug (single dose 1.25 mg fasted)
3 (37.5%) n (%) and 3 (37.5%)^a n (%): ECG change from reference: QTcB (ms) [30; 60] (single dose 1.25 mg fasted)
2 (33.3%) n (%): lab toxicity: LDL cholesterol (mmol/L, calculated), upwards, Grade 1 (single dose 0.6 mg fasted) | lab toxicity: Sodium (mmol/L), upwards, Grade 1 (single dose 0.6 mg fasted)
1 (17) n (%): ↑ Creatine kinase Grade 2 (laboratory abnormality) (single dose 0.6 mg fasted) | ↑ Glucose Grade 2 (laboratory abnormality) (single dose 0.6 mg fasted) | ↑ LDL cholesterol Grade 2 (laboratory abnormality) (single dose 0.6 mg fasted) | ↑ Sodium Grade 2 (laboratory abnormality) (single dose 0.6 mg fasted)
4 (66.7%) n (%): lab toxicity: Triglycerides (mmol/L), upwards, Grade 1 (single dose 0.6 mg fasted) | vital signs: SaO2 (%) 95% to <98% (single dose 0.6 mg fasted)
2 (25.0%) n (%): lab toxicity: Neutrophils, segmented (giga/L), downwards, Grade 1 (single dose 1.25 mg fasted) | lab toxicity: Sodium (mmol/L), upwards, Grade 1 (single dose 1.25 mg fasted)
1 (12.5%) n (%): ECG actual value: QRS (ms) High (single dose 1.25 mg fasted) | ECG actual value: QTcB (ms) ]450; 480] (single dose 1.25 mg fasted) | ECG actual value: QTcF (ms) ]450; 480] (single dose 1.25 mg fasted) | lab toxicity: Amylase (U/L), upwards, Grade 1 (single dose 1.25 mg fasted) | lab toxicity: Cholesterol (mmol/L), upwards, Grade 1 (single dose 1.25 mg fasted) | lab toxicity: Glucose (mmol/L), upwards, Grade 2 (single dose 1.25 mg fasted) | lab toxicity: LDL cholesterol (mmol/L, calculated), upwards, Grade 3 (single dose 1.25 mg fasted) | lab toxicity: Lymphocytes (giga/L), downwards, Grade 2 (single dose 1.25 mg fasted) | lab toxicity: Platelets (giga/L), downwards, Grade 1 (single dose 1.25 mg fasted) | lab toxicity: Sodium (mmol/L), upwards, Grade 2 (single dose 1.25 mg fasted) | subjects with Grade 2 treatment-related AEs (pyrexia) (single dose 1.25 mg fasted) | subjects with at least one AE for which any study drug or study was permanently stopped (single dose 1.25 mg fasted)
3 (50.0%) n (%): subjects with at least one AE (single dose 0.6 mg fasted) | subjects with at least one grade 1 AE (single dose 0.6 mg fasted) | vital signs: Respiratory rate (brpm) Grade 1 (single dose 0.6 mg fasted)
8 (100) n (%): Any AE (treatment-emergent) (single dose 1.25 mg fasted)
5 (62.5%) n (%): subjects with at least one AE possibly related to any study drug (single dose 1.25 mg fasted)
4 (50) n (%): Headache Grade 1 (treatment-emergent AE) (single dose 1.25 mg fasted)
3 (37.5%) n (%): subjects with myalgia (AE) (single dose 1.25 mg) | subjects with pyrexia (AE) (single dose 1.25 mg) | lab toxicity: Glucose (mmol/L), upwards, Grade 1 (single dose 1.25 mg fasted) | lab toxicity: Triglycerides (mmol/L), upwards, Grade 1 (single dose 1.25 mg fasted) | subjects with at least one AE probably related to any study drug (single dose 1.25 mg fasted)
4 (50.0%) n (%): subjects with headache (AE) (single dose 1.25 mg) | lab toxicity: Triglycerides (mmol/L), upwards, Grade 2 (single dose 1.25 mg fasted)
3 (38) n (%): Myalgia Grade 1 (treatment-emergent AE) (single dose 1.25 mg fasted)
